The record followed here is US5424290A, “Biologically active peptides and uses therefor” (Magainin Pharmaceuticals Inc., priority 1992, dated 1995).

Residues, ends and D or L forms follow the SMILES beside them.

What all share (assay type): cell-based
The subject of one assay is E. coli ATCC 25922. Kind of assay: Minimal Inhibitory Concentration, microtiter broth dilution antibacterial assay. The note with it: Mueller Hinton broth, 16-20 hours at 37° C., lowest concentration giving a clear well. The text has this:
(§1) Table I, which follows, indicates the Minimal Inhibitory Concentration (MIC) in μg/ml of Peptides (SEQ ID NO:1) through (SEQ ID NO:4), (SEQ ID NO:6) through (SEQ ID NO:13), (SEQ ID NO:16), (SEQ ID NO:20), (SEQ ID NO:21) and (SEQ ID NO:23) against S. aureus strain ATCC 25923, P. aeruginosa strain ATCC 27853, E. coli strain 25922, and Candida albicans. The procedure for the antibacterial assay is based upon the guidelines of the National Committee for Clinical Laboratory Standards, Document M7-T2, Volume 8, No. 8, 1988. Stock solutions of the peptides hereinabove mentioned are prepared at a concentration of 512 μg/ml in sterile deionized distilled water and stored at […]. Each peptide is a C-terminal amide and may or may not be acetylated at the N-terminus. An acetyl group at the N-terminus is indicated by an X. The stock peptide solution is diluted in serial dilutions (1:2) down the wells of a microtiter plate so that the final concentrations of peptides in the wells are 0.25, 0.50, 1, 2, 4, 8, 16, 32, 64, 128, and 256 μg/ml. 1-5×10^5 CFUs/ml of either S. aureus ATCC 25923, E. coli ATCC 25922, P. aeruginosa ATCC 27853, or Candida albicans were added to the wells in full strength Mueller Hinton broth (BBL 11443) from a mid-log culture. The inoculum is standardized spectrophotometrically at 600 nm and is verified by colony counts. The plates are incubated for 16-20 hours at 37° C., and the minimal inhibitory concentration (MIC) for each peptide is determined. Minimal inhibitory concentration is defined as the lowest concentration of peptide which produces a clear well in the microtiter plate.
In general terms: In broth dilution the organism is exposed to a series of concentrations in liquid medium.

In assay [1] the test system is P. aeruginosa strain ATCC 27853. The assay is described as above. The following applies: P. aeruginosa ATCC 27853; Mueller Hinton broth; 16-20 hours at 37° C.; lowest concentration giving a clear well.
Text: as §1

For assay [2], the system named is S. aureus strain ATCC 25923. The assay is described as above. The following applies: S. aureus ATCC 25923; Mueller Hinton broth; 16-20 hours at 37° C.; lowest concentration giving a clear well.
Text: as §1

A further assay deals with Candida albicans. Nature of the assay: Minimal Inhibitory Concentration, microtiter broth dilution assay. The following applies: Mueller Hinton broth, 16-20 hours at 37° C., lowest concentration giving a clear well.
Text: as §1

As for `CC[C@H](C)[C@H](N)C(=O)N[C@@H](CCCCN)C(=O)N[C@@H](CCCCN)C(=O)N[C@@H](Cc1ccccc1)C(=O)N[C@@H](CC(C)C)C(=O)N[C@@H](CCCCN)C(=O)N[C@@H](CCCCN)C(=O)N[C@@H](C)C(=O)N[C@@H](CCCCN)C(=O)N[C@@H](CCCCN)C(=O)N[C@@H](Cc1ccccc1)C(=O)NCC(=O)N[C@@H](CCCCN)C(=O)N[C@@H](CCCCN)C(=O)N[C@@H](Cc1ccccc1)C(=O)N[C@@H](CCCCN)C(=O)N[C@@H](CCCCN)C(=O)N[C@H](C(=O)N[C@@H](CC(C)C)C(=O)N[C@@H](CCCCN)C(=O)N[C@@H](CCCCN)C(N)=O)[C@@H](C)CC` [(SEQ ID NO: 2)-NH2] (H-IKKFLKKAKKFGKKFKKILKK-NH2), in the assay with E. coli ATCC 25922, the “Minimal Inhibitory Concentration E. coli” value came out at 16 µg/mL. Besides, the “Minimal Inhibitory Concentration P. aeruginosa” value in assay [1] turned out to be 8 µg/mL.

`CC[C@H](C)[C@H](N)C(=O)NCC(=O)N[C@@H](CCCCN)C(=O)N[C@@H](Cc1ccccc1)C(=O)N[C@@H](CC(C)C)C(=O)N[C@@H](CCCCN)C(=O)N[C@@H](CCCCN)C(=O)N[C@@H](C)C(=O)N[C@@H](CCCCN)C(=O)N[C@@H](CCCCN)C(=O)N[C@@H](Cc1ccccc1)C(=O)NCC(=O)N[C@@H](CCCCN)C(=O)N[C@@H](CCCCN)C(=O)N[C@@H](Cc1ccccc1)C(=O)N[C@@H](CCCCN)C(=O)N[C@@H](CCCCN)C(=O)N[C@@H](CCC(=O)O)C(=O)N[C@H](C(=O)N[C@@H](CCCCN)C(=O)N[C@@H](CCCCN)C(N)=O)[C@@H](C)CC` [(SEQ ID NO: 3)-NH2] (H-IGKFLKKAKKFGKKFKKEIKK-NH2): the “Minimal Inhibitory Concentration P. aeruginosa” value in assay [1] was 16 µg/mL. The “Minimal Inhibitory Concentration S. aureus” value in assay [2] was 32 µg/mL.

In the case of `CC[C@H](C)[C@H](NC(=O)CN)C(=O)NCC(=O)N[C@@H](CCCCN)C(=O)N[C@H](C(=O)N[C@@H](CC(C)C)C(=O)N[C@@H](CCCCN)C(=O)N[C@@H](CCCCN)C(=O)N[C@@H](C)C(=O)N[C@@H](CCCCN)C(=O)N[C@@H](CCCCN)C(=O)N[C@H](C(=O)NCC(=O)N[C@@H](CCCCN)C(=O)N[C@@H](C)C(=O)N[C@H](C(=O)N[C@H](C(=O)N[C@@H](CCCCN)C(=O)N[C@H](C(=O)N[C@@H](CC(C)C)C(=O)N[C@@H](CCCCN)C(=O)N[C@@H](CCCCN)C(N)=O)[C@@H](C)CC)C(C)C)[C@@H](C)CC)[C@@H](C)CC)[C@@H](C)CC` [(SEQ ID NO: 4)-NH2] (H-GIGKILKKAKKIGKAIVKILKK-NH2), the “Minimal Inhibitory Concentration P. aeruginosa” value in assay [1] amounted to 4 µg/mL. For the same compound, the “Minimal Inhibitory Concentration S. aureus” value in assay [2] stood at 16 µg/mL. In addition, the “Minimal Inhibitory Concentration C. albicans” value in the assay on Candida albicans stood at 64 µg/mL.

In the case of `CC[C@H](C)[C@H](NC(=O)CN)C(=O)NCC(=O)N[C@@H](CCCCN)C(=O)N[C@@H](Cc1ccccc1)C(=O)N[C@@H](CC(C)C)C(=O)N[C@@H](CCCCN)C(=O)N[C@@H](CCCCN)C(=O)N[C@@H](C)C(=O)N[C@@H](CCCCN)C(=O)N[C@@H](CCCCN)C(=O)N[C@@H](Cc1ccccc1)C(=O)NCC(=O)N[C@@H](CCCCN)C(=O)N[C@@H](C)C(=O)N[C@@H](Cc1ccccc1)C(=O)N[C@H](C(=O)N[C@@H](CCCCN)C(=O)N[C@H](C(=O)N[C@H](C(=O)N[C@@H](CCCCN)C(=O)N[C@@H](CCCCN)C(N)=O)C(C)C)[C@@H](C)CC)C(C)C` [(SEQ ID NO: 6)-NH2] (H-GIGKFLKKAKKFGKAFVKIVKK-NH2), the “Minimal Inhibitory Concentration E. coli” value with E. coli ATCC 25922 came out at 16 µg/mL. The “Minimal Inhibitory Concentration P. aeruginosa” value in assay [1] was 16 µg/mL. For the same compound, the “Minimal Inhibitory Concentration S. aureus” value in assay [2] worked out at 32 µg/mL.

Turning to `CC[C@H](C)[C@H](NC(=O)CN)C(=O)NCC(=O)N[C@@H](CCCCN)C(=O)N[C@@H](Cc1ccccc1)C(=O)N[C@@H](CC(C)C)C(=O)N[C@@H](CCCCN)C(=O)N[C@@H](CCCCN)C(=O)N[C@@H](C)C(=O)N[C@@H](CCCCN)C(=O)N[C@@H](CCCCN)C(=O)N[C@@H](Cc1ccccc1)C(=O)NCC(=O)N[C@@H](CCCCN)C(=O)N[C@@H](C)C(=O)N[C@@H](Cc1ccccc1)C(=O)N[C@H](C(=O)N[C@@H](CCCCN)C(=O)N[C@H](C(=O)N[C@@H](CC(C)C)C(=O)N[C@@H](CCCCN)C(=O)N[C@@H](CCCCN)C(=O)N[C@@H](CCCNC(=N)N)C(N)=O)[C@@H](C)CC)C(C)C` [(SEQ ID NO: 8)-NH2] (H-GIGKFLKKAKKFGKAFVKILKKR-NH2), in assay [1], the “Minimal Inhibitory Concentration P. aeruginosa” value turned out to be 4 µg/mL. The “Minimal Inhibitory Concentration S. aureus” value in assay [2] was 16 µg/mL. Moreover, the “Minimal Inhibitory Concentration C. albicans” value in the assay with Candida albicans worked out at 64 µg/mL.

For `CC[C@H](C)[C@H](NC(=O)CN)C(=O)NCC(=O)N[C@@H](CCCCN)C(=O)N[C@@H](Cc1ccccc1)C(=O)N[C@@H](CC(C)C)C(=O)N[C@@H](CCCCN)C(=O)N[C@@H](CCCCN)C(=O)N[C@@H](C)C(=O)N[C@@H](CCCCN)C(=O)N[C@@H](CCCCN)C(=O)N[C@@H](Cc1ccccc1)C(=O)NCC(=O)N[C@@H](CCCCN)C(=O)N[C@@H](C)C(=O)N[C@@H](Cc1ccccc1)C(=O)N[C@H](C(=O)N[C@@H](CCCCN)C(=O)N[C@H](C(=O)N[C@@H](CC(C)C)C(=O)N[C@@H](CCCCN)C(=O)N[C@@H](CCCCN)C(=O)N[C@@H](CC(N)=O)C(N)=O)[C@@H](C)CC)C(C)C` [(SEQ ID NO: 9)-NH2] (H-GIGKFLKKAKKFGKAFVKILKKN-NH2), the “Minimal Inhibitory Concentration P. aeruginosa” value in assay [1] came to 8 µg/mL. For the same compound, the “Minimal Inhibitory Concentration S. aureus” value in assay [2] came to 64 µg/mL.

Take `CC[C@H](C)[C@H](NC(=O)CNC(=O)[C@@H](N)CCSC)C(=O)NCC(=O)N[C@@H](CCCCN)C(=O)N[C@@H](Cc1ccccc1)C(=O)N[C@@H](CC(C)C)C(=O)N[C@@H](CCCCN)C(=O)N[C@@H](CCCCN)C(=O)N[C@@H](C)C(=O)N[C@@H](CCCCN)C(=O)N[C@@H](CCCCN)C(=O)N[C@@H](Cc1ccccc1)C(=O)NCC(=O)N[C@@H](CCCCN)C(=O)N[C@@H](C)C(=O)N[C@@H](Cc1ccccc1)C(=O)N[C@H](C(=O)N[C@@H](CCCCN)C(=O)N[C@H](C(=O)N[C@@H](CC(C)C)C(=O)N[C@@H](CCCCN)C(=O)N[C@@H](CCCCN)C(N)=O)[C@@H](C)CC)C(C)C` [(SEQ ID NO: 11)-NH2] (H-MGIGKFLKKAKKFGKAFVKILKK-NH2): the “Minimal Inhibitory Concentration S. aureus” value in assay [2] was determined as 64 µg/mL. For the same compound, in the assay with Candida albicans, the “Minimal Inhibitory Concentration C. albicans” value worked out at 64 µg/mL.

On to `CC[C@H](C)[C@H](NC(=O)CNC(=O)[C@H](CCCNC(=N)N)NC(=O)[C@@H](N)CCCNC(=N)N)C(=O)NCC(=O)N[C@@H](CCCCN)C(=O)N[C@@H](Cc1ccccc1)C(=O)N[C@@H](CC(C)C)C(=O)N[C@@H](CCCCN)C(=O)N[C@@H](CCCCN)C(=O)N[C@@H](C)C(=O)N[C@@H](CCCCN)C(=O)N[C@@H](CCCCN)C(=O)N[C@@H](Cc1ccccc1)C(=O)NCC(=O)N[C@@H](CCCCN)C(=O)N[C@@H](C)C(=O)N[C@@H](Cc1ccccc1)C(=O)N[C@H](C(=O)N[C@@H](CCCCN)C(=O)N[C@H](C(=O)N[C@@H](CC(C)C)C(=O)N[C@@H](CCCCN)C(=O)N[C@@H](CCCCN)C(N)=O)[C@@H](C)CC)C(C)C` [(SEQ ID NO: 12)-NH2] (H-RRGIGKFLKKAKKFGKAFVKILKK-NH2), for which the “Minimal Inhibitory Concentration P. aeruginosa” value in assay [1] is 32 µg/mL. Also, the “Minimal Inhibitory Concentration C. albicans” value in the assay with Candida albicans is 128 µg/mL.

`CC[C@H](C)[C@H](NC(=O)CNC(=O)[C@H](CCCNC(=N)N)NC(=O)[C@@H](N)CCCNC(=N)N)C(=O)NCC(=O)N[C@@H](CCCCN)C(=O)N[C@@H](Cc1ccccc1)C(=O)N[C@@H](CC(C)C)C(=O)N[C@@H](CCCCN)C(=O)N[C@@H](CCCCN)C(=O)N[C@@H](C)C(=O)N[C@@H](CCCCN)C(=O)N[C@@H](CCCCN)C(=O)N[C@@H](Cc1ccccc1)C(=O)NCC(=O)N[C@@H](CCCCN)C(=O)N[C@@H](C)C(=O)N[C@@H](Cc1ccccc1)C(=O)N[C@H](C(=O)N[C@@H](CCCCN)C(=O)N[C@H](C(=O)N[C@@H](CC(C)C)C(=O)N[C@@H](CCCCN)C(=O)N[C@@H](CCCCN)C(=O)NCC(N)=O)[C@@H](C)CC)C(C)C` [(SEQ ID NO: 13)-NH2] (H-RRGIGKFLKKAKKFGKAFVKILKKG-NH2): the “Minimal Inhibitory Concentration P. aeruginosa” value in assay [1] came to 4 µg/mL. Besides, the “Minimal Inhibitory Concentration C. albicans” value in the assay on Candida albicans was 64 µg/mL.

`CC[C@H](C)[C@H](NC(=O)CN)C(=O)NCC(=O)N[C@@H](CCCCN)C(=O)N[C@@H](Cc1ccccc1)C(=O)N[C@@H](CC(C)C)C(=O)N[C@@H](CCCCN)C(=O)N[C@@H](CCCCN)C(=O)N[C@@H](C)C(=O)N[C@@H](CCCCN)C(=O)N[C@@H](CCCCN)C(=O)N[C@@H](Cc1ccccc1)C(=O)NCC(=O)N[C@@H](CCCCN)C(=O)N[C@@H](C)C(=O)N[C@@H](Cc1ccccc1)C(=O)N[C@H](C(=O)N[C@@H](CCCCN)C(=O)N[C@H](C(=O)N[C@@H](CC(C)C)C(=O)N[C@@H](CCCCN)C(=O)N[C@@H](CCCCN)C(N)=O)[C@@H](C)CC)[C@@H](C)CC` [(SEQ ID NO: 19)-NH2] (H-GIGKFLKKAKKFGKAFIKILKK-NH2): the “Minimal Inhibitory Concentration P. aeruginosa” value in assay [1] is 8 µg/mL. For the same compound, the “Minimal Inhibitory Concentration S. aureus” value in assay [2] was 8 µg/mL.
